Each structure is given as a SMILES string.

The text below walks through data of US8809365B2, “1-substituted 2-azabicyclo [3.1.1] heptyl derivatives useful as nicotinic acetylcholine receptor modulators for treating neurologic disorders” (Universiteit Gent, priority 2009, dated 2014).

Assay [1] addresses human α7 neuronal nicotinic receptor (Homo sapiens, UniProt P36544). Briefly: biochemical. It counts as binding. To be noted: read-out: % inhibition N neuronal alpha-BGTX-sensitive (alpha 7) (antagonist radioligand).
For assay [2], the target named is human muscle-type nicotinic receptor (Homo sapiens, UniProt P02708+P07510+Q07001). Briefly: biochemical. Conditions: read-out: % inhibition N muscle-type (h) (antagonist radioligand). The format is binding.
human muscle-type nicotinic receptor, sequence (P07510 23-517): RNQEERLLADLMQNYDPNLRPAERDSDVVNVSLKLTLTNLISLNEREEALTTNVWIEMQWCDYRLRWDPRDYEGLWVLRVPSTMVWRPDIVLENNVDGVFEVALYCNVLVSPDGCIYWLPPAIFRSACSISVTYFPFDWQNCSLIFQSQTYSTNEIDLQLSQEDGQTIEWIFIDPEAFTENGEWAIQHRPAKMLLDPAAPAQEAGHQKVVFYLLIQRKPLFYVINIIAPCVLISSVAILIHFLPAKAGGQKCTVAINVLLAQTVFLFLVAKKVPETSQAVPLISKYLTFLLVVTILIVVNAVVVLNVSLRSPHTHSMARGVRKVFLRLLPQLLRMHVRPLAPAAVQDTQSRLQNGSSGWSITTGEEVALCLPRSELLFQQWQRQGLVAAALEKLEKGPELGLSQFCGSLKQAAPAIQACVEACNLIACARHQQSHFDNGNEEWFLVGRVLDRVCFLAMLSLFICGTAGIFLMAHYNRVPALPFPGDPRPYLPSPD
human muscle-type nicotinic receptor, sequence (Q07001 22-517): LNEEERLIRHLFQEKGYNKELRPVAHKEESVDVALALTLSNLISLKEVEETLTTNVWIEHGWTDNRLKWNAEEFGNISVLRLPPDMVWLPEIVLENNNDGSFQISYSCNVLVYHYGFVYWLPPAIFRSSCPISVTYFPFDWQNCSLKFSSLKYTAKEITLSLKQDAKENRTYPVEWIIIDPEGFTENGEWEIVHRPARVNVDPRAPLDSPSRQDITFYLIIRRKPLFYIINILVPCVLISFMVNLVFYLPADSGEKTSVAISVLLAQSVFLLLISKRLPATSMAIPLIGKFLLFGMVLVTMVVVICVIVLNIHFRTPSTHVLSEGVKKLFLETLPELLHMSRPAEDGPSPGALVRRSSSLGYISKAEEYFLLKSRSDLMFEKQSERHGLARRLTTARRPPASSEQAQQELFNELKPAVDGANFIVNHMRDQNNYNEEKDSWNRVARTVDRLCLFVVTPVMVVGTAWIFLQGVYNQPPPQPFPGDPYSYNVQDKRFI
human muscle-type nicotinic receptor, sequence (P02708 21-457): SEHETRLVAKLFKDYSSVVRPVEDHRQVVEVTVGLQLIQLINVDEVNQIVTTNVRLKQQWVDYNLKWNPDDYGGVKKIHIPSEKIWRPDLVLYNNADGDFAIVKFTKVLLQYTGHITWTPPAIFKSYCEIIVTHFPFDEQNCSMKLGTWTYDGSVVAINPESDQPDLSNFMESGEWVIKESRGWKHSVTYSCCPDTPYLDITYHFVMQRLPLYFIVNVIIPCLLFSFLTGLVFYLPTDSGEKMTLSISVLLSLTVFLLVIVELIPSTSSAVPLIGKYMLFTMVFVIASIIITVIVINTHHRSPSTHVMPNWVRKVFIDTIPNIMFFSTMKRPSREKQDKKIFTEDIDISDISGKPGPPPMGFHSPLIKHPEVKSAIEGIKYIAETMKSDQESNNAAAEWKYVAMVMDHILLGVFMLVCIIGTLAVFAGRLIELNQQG
human muscle-type nicotinic receptor, sequence (P11230 24-501, further chain): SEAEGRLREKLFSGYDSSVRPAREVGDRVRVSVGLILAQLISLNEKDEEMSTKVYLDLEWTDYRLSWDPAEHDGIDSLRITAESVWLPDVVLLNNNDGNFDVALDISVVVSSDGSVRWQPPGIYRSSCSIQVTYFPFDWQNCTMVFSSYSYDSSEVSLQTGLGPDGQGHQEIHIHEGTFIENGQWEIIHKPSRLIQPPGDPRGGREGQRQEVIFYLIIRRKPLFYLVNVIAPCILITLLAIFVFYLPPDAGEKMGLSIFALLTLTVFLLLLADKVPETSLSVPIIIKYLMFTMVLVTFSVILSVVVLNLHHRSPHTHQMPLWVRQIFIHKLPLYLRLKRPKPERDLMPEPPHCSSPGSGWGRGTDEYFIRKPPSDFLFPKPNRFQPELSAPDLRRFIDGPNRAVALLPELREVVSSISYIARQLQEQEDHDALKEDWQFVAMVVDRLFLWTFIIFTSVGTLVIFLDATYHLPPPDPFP
Assay [3] addresses T1, human dopamine D1 receptor (Homo sapiens, UniProt P21728).
T1 construct: expressed in transfected cells; host or cells: CHO cells (membrane homogenates)
The assay is described as follows: Human dopamine D1 receptor radioligand binding assay (antagonist radioligand). To be noted: 1 μmmole test compound; 0.3 nM [3H]SCH 23390; transfected CHO cell membranes; one single experiment; 0.0003 µM. Here is the method:
Human Dopamine D1 Receptor (Antagonist Radioligand):
The purpose is to evaluate the affinity of compounds for the human dopamine D1 receptor in transfected CHO cells determined in a radioligand binding assay according to Zhou et al in Nature (1990) 347:76. The experimental protocol is as follows. Cell membrane homogenates (48 μg protein) are incubated for 60 minutes at 22° C. with 0.3 nM [^3H]SCH 23390 in the absence or presence of the test compound in a buffer containing 50 mM Tris-HCl (pH 7.4), 5 mM KCl, 5 mM MgCl2, 1.5 mM CaCl2 and 5 mM EDTA. Non-specific binding is determined in the presence of 1 μM SCH 23390. Following incubation, the samples are filtered rapidly under vacuum through glass fiber filters (GF/B, Packard) presoaked with 0.3% PEI and rinsed several times with ice-cold 50 mM Tris-HCl using a 96-sample cell harvester (Unifilter, Packard). The filters are dried then counted for radioactivity in a scintillation counter (Topcount, Packard) using a scintillation cocktail (Microscint 0, Packard). The results are expressed as a percent inhibition of the control radioligand specific binding. The standard reference compound is SCH 23390, which is tested in each experiment at several concentrations to obtain a competition curve from which its IC50 is calculated, and from which the % inhibition at 1 μM as indicated in the following table is obtained.

For assay [4] the following is noted: relative to morphine; cited from earlier work.

T1 sequence (P21728 whole entry): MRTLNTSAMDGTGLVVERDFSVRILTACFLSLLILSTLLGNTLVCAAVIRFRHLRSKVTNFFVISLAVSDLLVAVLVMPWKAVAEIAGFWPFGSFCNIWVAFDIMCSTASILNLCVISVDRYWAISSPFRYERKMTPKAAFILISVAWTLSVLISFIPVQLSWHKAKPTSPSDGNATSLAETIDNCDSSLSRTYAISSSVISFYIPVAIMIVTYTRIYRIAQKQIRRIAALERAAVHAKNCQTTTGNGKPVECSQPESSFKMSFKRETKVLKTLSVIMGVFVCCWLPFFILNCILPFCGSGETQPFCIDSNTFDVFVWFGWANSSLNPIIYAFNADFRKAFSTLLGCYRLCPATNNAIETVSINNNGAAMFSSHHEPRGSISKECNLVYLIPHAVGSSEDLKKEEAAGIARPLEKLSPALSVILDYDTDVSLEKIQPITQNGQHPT
human α7 neuronal nicotinic receptor, sequence (P36544 23-502): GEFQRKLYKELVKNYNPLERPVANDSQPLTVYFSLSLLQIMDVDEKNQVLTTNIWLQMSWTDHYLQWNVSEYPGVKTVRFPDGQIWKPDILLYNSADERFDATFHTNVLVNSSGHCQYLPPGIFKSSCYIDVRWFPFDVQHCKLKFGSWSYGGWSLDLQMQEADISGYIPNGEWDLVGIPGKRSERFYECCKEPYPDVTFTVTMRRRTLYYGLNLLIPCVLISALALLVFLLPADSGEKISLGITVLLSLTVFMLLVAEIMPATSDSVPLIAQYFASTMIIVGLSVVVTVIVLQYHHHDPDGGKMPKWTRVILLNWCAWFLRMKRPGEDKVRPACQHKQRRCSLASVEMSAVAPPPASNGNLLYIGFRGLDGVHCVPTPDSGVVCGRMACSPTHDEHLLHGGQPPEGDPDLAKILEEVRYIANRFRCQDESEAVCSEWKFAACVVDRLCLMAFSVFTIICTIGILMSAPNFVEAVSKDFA

On to `CCN1CCC2CC1(C(O)c1cccnc1)C2` (stereo not shown) [Compound 11], for which, in assay [1], the inhibition at 50 pM was -1%. Also, the inhibition at 0.0005 µM in assay [2] amounted to 17%.

In the case of `CCN1CCC2CC1(C(O)c1cccnc1)C2` (stereo not shown) [Compound 19a], the “% inhibition D1 (h) (antagonist radioligand)” value in assay [3] stood at 9%.

With `Clc1ccc(C2CC3CCC2N3)cn1` (stereo not shown) [epibatidine], the “analgesic potency higher than that of morphine” value in assay [4] is recorded as “about 200 fold”.

Usually inhibition stands for the drop in the measured response relative to a control, in per cent.
